Consider 13 compounds from ChEMBL document CHEMBL1140303, “Pharmacophore, drug metabolism, and pharmacokinetics models on non-peptide AT1, AT2, and AT1/AT2 angiotensin II receptor antagonists” (J Med Chem, 2005).

One may read the bioavailability as the share of a dose that reaches the circulation, judged against a reference dose that is usually intravenous. Read a low bioavailability as little systemic uptake. As a reminder, the half-life is the time in which the quantity being followed falls by half. Low values mean fast loss, high ones slow loss. What is called Vd is the apparent volume that relates the amount in the body to the concentration in plasma or blood. Higher therefore signals wide distribution into tissue.

Data set [1] in a line: Oral bioavailability. Format: ADME, organism-based. The note with it: human, in vivo.
For data set [2], the target named is T1, Type-1 angiotensin II receptor (Homo sapiens) (UniProt P30556).
T1 sequence (whole entry): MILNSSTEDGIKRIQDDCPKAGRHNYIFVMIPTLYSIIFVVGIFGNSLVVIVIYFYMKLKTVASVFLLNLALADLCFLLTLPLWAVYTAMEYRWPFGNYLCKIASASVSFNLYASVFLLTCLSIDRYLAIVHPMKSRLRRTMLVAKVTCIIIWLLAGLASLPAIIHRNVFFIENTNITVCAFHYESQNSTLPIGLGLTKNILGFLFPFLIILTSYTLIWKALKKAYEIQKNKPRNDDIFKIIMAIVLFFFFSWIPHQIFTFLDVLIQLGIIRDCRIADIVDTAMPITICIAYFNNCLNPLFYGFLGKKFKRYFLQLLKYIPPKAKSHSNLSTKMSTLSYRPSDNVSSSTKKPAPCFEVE
Put plainly: Time to maximal plasma concentration of the drug in human.

Data set [3] addresses T1, Type-1 angiotensin II receptor (Homo sapiens). Put plainly: Binding affinity for AT1 receptor.
The nature of data set [4]: Percentage modification of drug adsorbed after administration to human. Format: ADME.
The nature of data set [5]: Time required for elimination of 50% of the compound. The note with it: human. Format: ADME.
Data set [6] concerns the target T1, Type-1 angiotensin II receptor (Homo sapiens).
Description: pKa value against human Angiotensin II receptor type 1
Data set [7] is described as follows: Volume distribution was determined. Format: ADME, organism-based. As to conditions: human, in vivo.
Data set [8] has as its target T1, Type-1 angiotensin II receptor (Homo sapiens). Put plainly: Time to maximal effect against human Angiotensin II receptor type 1.

`CCCc1nc2c(C)cc(-c3nc4ccccc4n3C)cc2n1Cc1ccc(-c2ccccc2C(=O)O)cc1`: the bioavailability in data set [1] is 58%. In addition, the Tmax in data set [2] was found to be 1 h. In addition, in data set [3], the Affinity was determined as 1 nM. Besides, the “Modification of adsorbed drug” value in data set [4] amounted to 16%. The compound also gave a half-life in data set [5] of 24 h. Besides, in data set [6], the pKa turned out to be 4.5. This compound also displayed a Vd in data set [7] of 4.54 L/kg.
With `CCOc1nc2cccc(C(=O)O)c2n1Cc1ccc(-c2ccccc2-c2nnn[nH]2)cc1`, the Tmax in data set [8] was found to be 4 h. The bioavailability in data set [1] amounted to 40%. Also, the Affinity in data set [3] came out at 0.1 nM. Moreover, in data set [4], the “Modification of adsorbed drug” value worked out at 20%. This compound also gave a half-life in data set [5] of 11 h. This compound also yielded a pKa in data set [6] of 3.9.
As for `CCCCc1nc(Cl)c(CO)n1Cc1ccc(-c2ccccc2-c2nnn[nH]2)cc1`, in data set [2], the Tmax came to 1 h. In addition, the Affinity in data set [3] was found to be 6.4 nM. This compound also displayed a pKa in data set [6] of 4.9.
Consider `CCCCc1nc(Cl)c(C(=O)O)n1Cc1ccc(-c2ccccc2-c2nn[nH]n2)cc1` [CARBOXYLIC ACID METABOLITE], for which, in data set [2], the Tmax was determined as 3 h. Besides, the Affinity in data set [3] stood at 1.3 nM. The compound also gave a half-life in data set [5] of 6.4 h. The compound also yielded a pKa in data set [6] of 2.8.
For the compound `CCc1nc2c(C)cc(C)nc2n1Cc1ccc(-c2ccccc2-c2nn[nH]n2)cc1`, the Affinity in data set [3] was 0.5 nM.
Turning to `CCCCc1nc(Cl)c(CO)n1Cc1ccc(-c2ccccc2-c2nn[nH]n2)cc1` [LOSARTAN], the “Modification of adsorbed drug” value in data set [4] was determined as 75%. Also, in data set [5], the half-life is 3.2 h. Also, the VD in data set [7] worked out at 0.38 L/kg.
Turning to `CCCCC1=NC2(CCCC2)C(=O)N1Cc1ccc(-c2ccccc2-c2nnn[nH]2)cc1` [IRBESARTAN], the bioavailability in data set [1] was found to be 70%. The Tmax in data set [2] is 2.5 h. In data set [3], this compound gave an Affinity of 1.3 nM. Moreover, in data set [4], the “Modification of adsorbed drug” value came out at 20%. In data set [5], this compound showed a half-life of 21 h. Further, the pKa in data set [6] came to 4.7. Besides, the Vd in data set [7] amounted to 0.9 L/kg.
In the case of `CCCCC(=O)N(Cc1ccc(-c2ccccc2-c2nnn[nH]2)cc1)[C@H](C(=O)O)C(C)C`, in data set [1], the bioavailability is 25%. Besides, the Tmax in data set [2] was 4 h. In data set [3], this compound displayed an Affinity of 1.7 nM. Moreover, in data set [4], the “Modification of adsorbed drug” value came out at 9%. In data set [5], this compound showed a half-life of 6.1 h. The compound further had a Vd in data set [7] of 0.22 L/kg.
Compound `Cc1nc(C)c2c(n1)N(Cc1ccc(-c3ccccc3-c3nnn[nH]3)cc1)C(=O)CC2` [TASOSARTAN] came in with a bioavailability in data set [1] of 60%. Besides, the Tmax in data set [2] came to 0.5 h. The compound also showed an Affinity in data set [3] of 1.2 nM. Further, the “Modification of adsorbed drug” value in data set [4] was determined as 2%. Besides, the half-life in data set [5] was 15 h. The pKa in data set [6] is 5.
As for `Cc1nc(C)c2c(O)cc(=O)n(Cc3ccc(-c4ccccc4-c4nn[nH]n4)cc3)c2n1`, the Tmax in data set [2] was found to be 1 h. In data set [3], the Affinity was found to be 0.4 nM.
Consider `CCCCc1ncc(/C=C(\Cc2cccs2)C(=O)O)n1Cc1ccc(C(=O)O)cc1` [EPROSARTAN], for which the bioavailability in data set [1] was found to be 13%. For the same compound, the Tmax in data set [2] is 13 h. The compound further registered an Affinity in data set [3] of 9.2 nM. Also, the “Modification of adsorbed drug” value in data set [4] is listed as 20%. This compound gave a half-life in data set [5] of 7 h. Also, the pKa in data set [6] turned out to be 5. Moreover, the Vd in data set [7] is 0.16 L/kg.
For the compound `CCCCc1nc(Cl)c(CO)n1Cc1ccc(-c2ccccc2C(=O)O)cc1`, the Affinity in data set [3] was 230 nM.
Take `Cc1nc(C)c2c(O)cc(=O)n(Cc3ccc(-c4ccccc4-c4nnn[nH]4)cc3)c2n1` [ENOLTASOSARTAN]: the half-life in data set [5] was 40 h.
